From ChEMBL document CHEMBL1201862, “PubChem BioAssay data set” (2004)
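48-hour exposure; five concentrations; linearly interpolated endpoints. GI50 is the concentration that inhibits growth by half.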 Active and inactive are the calls of the source. No stated cut-off is given here; in the data, active = GI50 up to about 1.1 µM and inactive = higher.

Tests used:
Test in all cases: DTP human tumour cell line panel, 48 h
[1] = tested on: OVCAR-5
[2] = tested on: SF-539
[3] = tested on: UACC-257
[4] = tested on: NCI-H226
[5] = tested on: SK-OV-3
[6] = tested on: U-251
[7] = tested on: SK-MEL-28
[8] = tested on: NCI-H522
[9] = tested on: M14
[10] = tested on: KM12
[11] = tested on: HOP-92
[12] = tested on: RXF 393
[13] = tested on: Malme-3M
[14] = tested on: SNB-75
[15] = tested on: CCRF-CEM
[16] = tested on: SW-620
[17] = tested on: A549
[18] = tested on: DU-145
[19] = tested on: MDA-N
[20] = tested on: PC-3

Measured: GI50

CCN(CC)CC(C(=O)Nc1c(C)cccc1C)/C(C)=N/NC(N)=S (configuration not stated)
inactive: [1] > 100 µM | [2] > 100 µM | [3] > 100 µM | [4] > 100 µM | [5] > 100 µM | [6] > 100 µM | [7] > 100 µM | [8] > 100 µM | [9] > 100 µM | [10] > 100 µM | [11] > 100 µM | [12] > 100 µM | [13] > 100 µM | [14] > 100 µM | [15] > 100 µM | [16] > 100 µM | [17] > 100 µM

CCCCCCCC(=O)NCC(O)CNC(=O)CCCCCCC
inactive: [1] > 100 µM | [2] > 100 µM | [3] > 100 µM | [4] > 100 µM | [5] > 100 µM | [6] > 100 µM | [8] > 100 µM | [9] > 100 µM | [10] > 100 µM | [11] > 100 µM | [12] > 100 µM | [13] > 100 µM | [14] > 100 µM | [15] 88.1 µM | [16] > 100 µM | [17] > 100 µM

OC(c1ccccn1)C1CNc2ccccc21 (configuration not stated)
inactive: [1] > 100 µM | [2] > 100 µM | [3] > 100 µM | [4] > 100 µM | [5] > 100 µM | [6] > 100 µM | [7] > 100 µM | [8] > 100 µM | [9] > 100 µM | [10] > 100 µM | [11] > 100 µM | [12] > 100 µM | [13] > 100 µM | [14] 22.1 µM | [15] > 100 µM | [16] > 100 µM | [17] > 100 µM

CSC(SC)=C(C#N)C(=O)Nc1ccc(Cl)cc1
inactive: [1] > 100 µM | [2] 27.7 µM | [3] > 100 µM | [4] 23.6 µM | [5] > 100 µM | [6] 91 µM | [7] > 100 µM | [9] 48.4 µM | [10] 68.2 µM | [18] 74.6 µM | [12] 19.8 µM | [13] 27.1 µM | [14] 95.3 µM | [19] 74.6 µM | [15] 20.6 µM | [16] 44.1 µM | [20] 54.2 µM | [17] 31.3 µM

C/C=C(/I)CBr
inactive: [1] > 10 µM | [2] 17 µM | [4] 20.6 µM | [5] 30.8 µM | [6] > 10 µM | [7] 21 µM | [8] 2.03 µM | [9] 13.8 µM | [11] 15.3 µM | [12] 17.3 µM | [13] 16 µM | [14] > 10 µM | [15] 3.78 µM | [16] 13.6 µM | [17] 24.3 µM

CC(C)(C)c1ccc(OC(=O)Nc2ccc(O)c(C(=O)O)c2)cc1
inactive: [1] > 100 µM | [2] > 100 µM | [3] > 100 µM | [4] > 100 µM | [5] > 100 µM | [6] > 100 µM | [7] > 100 µM | [8] > 100 µM | [9] > 100 µM | [10] > 100 µM | [11] > 100 µM | [18] > 100 µM | [12] > 100 µM | [13] > 100 µM | [14] > 100 µM | [15] > 100 µM | [16] > 100 µM | [20] > 100 µM | [17] > 100 µM

COc1ccc(NS(=O)(=O)c2ccc(/N=C3\C=C(Nc4ccc(S(=O)(=O)Nc5ccc(OC)nn5)cc4)C(=O)c4ccccc43)cc2)nn1
inactive: [1] 19.1 µM | [2] 17.7 µM | [3] 16.9 µM | [4] 19.3 µM | [5] 18.1 µM | [6] 18 µM | [7] 17.5 µM | [8] 17 µM | [9] 17.5 µM | [10] 16.7 µM | [11] 31 µM | [12] 18.4 µM | [13] 19 µM | [14] 19.8 µM | [15] > 100 µM | [16] 18.9 µM | [17] 17.9 µM

CN(C)c1ccc(/C=C2\C[N+](C)(C)C/C(=C\c3ccc(N(C)C)cc3)C2=O)cc1
inactive: [1] 38.9 µM | [2] 21.1 µM | [3] 12.1 µM | [4] 30.5 µM | [5] 26.7 µM | [6] 6.27 µM | [7] 15.3 µM | [8] 9.66 µM | [9] 20.3 µM | [10] 6.14 µM | [11] 19.4 µM | [18] 31.3 µM | [12] > 48.2 µM | [13] 22.1 µM | [14] 17.1 µM | [15] 9.53 µM | [16] 15.3 µM | [17] 20.7 µM

Cc1ccc(C)c(N2C(=O)C(=O)C(c3nc4ccccc4o3)/C(=N/N)C2=O)c1 (configuration not stated)
inactive: [2] > 100 µM | [3] > 100 µM | [4] > 100 µM | [5] > 100 µM | [6] > 100 µM | [7] > 100 µM | [8] > 100 µM | [9] > 100 µM | [10] > 100 µM | [11] > 100 µM | [12] > 100 µM | [13] > 100 µM | [14] 95.7 µM | [15] > 100 µM | [16] > 100 µM | [17] > 100 µM

NS(=O)(=O)c1cc2c(cc1Cl)NC(C(=O)c1cc(=O)c3ccc(O)cc3o1)=NS2(=O)=O
inactive: [1] > 100 µM | [2] > 100 µM | [3] > 100 µM | [4] > 100 µM | [5] > 100 µM | [6] > 100 µM | [7] > 100 µM | [8] > 100 µM | [9] > 100 µM | [10] > 100 µM | [11] > 100 µM | [12] > 100 µM | [13] > 100 µM | [14] 97.7 µM | [15] > 100 µM | [16] > 100 µM | [17] > 100 µM

Cc1cnc(-c2c[nH]c3ccccc23)nc1-c1c[nH]c2ccccc12
inactive: [1] 5.5 µM | [2] 11.7 µM | [3] 6.82 µM | [5] 11.2 µM | [6] 6.46 µM | [9] 4.32 µM | [10] 3.78 µM | [11] 2.03 µM | [18] 6.73 µM | [14] 2.39 µM | [19] 4.2 µM | [15] 1.52 µM | [16] 11.5 µM | [20] 3.49 µM | [17] 3.64 µM

COC(=O)C(CC(C)=O)CS(=O)(=O)CC(=O)C(=O)Nc1cccc([N+](=O)[O-])c1 (configuration not stated)
inactive: [1] > 100 µM | [2] > 100 µM | [3] > 100 µM | [4] > 100 µM | [5] > 100 µM | [6] > 100 µM | [7] > 100 µM | [8] > 100 µM | [9] > 100 µM | [10] > 100 µM | [11] > 100 µM | [12] > 100 µM | [13] > 100 µM | [14] > 100 µM | [15] > 100 µM | [16] > 100 µM | [17] > 100 µM

COc1ccc(C(=O)/C=C/c2ccc(OCCCCCCCCCCOc3ccc(/C=C/C(=O)c4ccc(OC)c(OC)c4)cc3)cc2)c(OC)c1
inactive: [1] > 100 µM | [2] > 100 µM | [3] > 100 µM | [4] > 100 µM | [5] > 100 µM | [6] > 100 µM | [7] > 100 µM | [9] > 100 µM | [10] > 100 µM | [18] > 100 µM | [12] > 100 µM | [14] > 100 µM | [19] > 100 µM | [15] > 100 µM | [16] > 100 µM | [20] > 100 µM | [17] > 100 µM

Oc1c2cccc1Cc1cccc3c1OCCOCCOCCOCCOc1c(cccc1Cc1cccc(c1O)C3)C2
inactive: [1] > 100 µM | [2] 94.6 µM | [3] 66.2 µM | [4] 22.5 µM | [5] > 100 µM | [6] > 100 µM | [7] > 100 µM | [8] 18.5 µM | [9] > 100 µM | [10] > 100 µM | [11] > 100 µM | [18] > 100 µM | [12] > 100 µM | [14] 22 µM | [15] > 100 µM | [16] > 100 µM | [20] 17.1 µM | [17] > 100 µM

COc1ccc(-c2c(N)n(-c3nc4ccccc4s3)c(=O)c3cc([N+](=O)[O-])ccc23)cc1
inactive: [1] 22.2 µM | [2] 5.83 µM | [3] 67.8 µM | [4] 37.3 µM | [5] 15.3 µM | [6] 7.6 µM | [7] > 100 µM | [8] 10.7 µM | [9] 17.8 µM | [10] 18.6 µM | [11] 16.4 µM | [12] 14.2 µM | [13] 20.7 µM | [14] 8.43 µM | [19] 70.5 µM | [15] 4.44 µM | [16] 19.7 µM | [20] 30.8 µM | [17] 11.2 µM

CC(Oc1cc2oc(=O)cc(-c3ccccc3)c2cc1Cl)C(=O)O (configuration not stated)
inactive: [2] > 100 µM | [3] > 100 µM | [4] > 100 µM | [5] > 100 µM | [6] > 100 µM | [7] > 100 µM | [8] > 100 µM | [9] > 100 µM | [10] > 100 µM | [11] > 100 µM | [12] > 100 µM | [13] > 100 µM | [14] > 100 µM | [15] > 100 µM | [16] > 100 µM | [17] > 100 µM
